The source of these data is patent US10392391B2 (Vertex Pharmaceuticals Incorporated, priority 2012, dated 2019).

SMILES strings stand for the structures. Like-named read-outs stand apart in the source and are kept apart here.

Assay [1] has as its target ATR kinase, in the presence of partner proteins ATRIP, CLK2 and TopBP1 (Homo sapiens (Human), UniProt Q13535). Nature of the assay: ATR-complex inhibition assay (radioactive-phosphate incorporation). The class given is biochemical. Particulars: Ki(app); 4 nM full-length ATR, 40 nM ATRIP, 40 nM CLK2, 600 nM TopBP1; 10 μM ATP; 25° C. On the procedure:
Compounds were screened for their ability to inhibit ATR kinase, in the presence of partner proteins ATRIP, CLK2 and TopBP1, using a radioactive-phosphate incorporation assay. Assays were carried out in a mixture of 50 mM Tris/HCl (pH 7.5), 10 mM MgCl2 and 1 mM DTT. Final substrate concentrations were 10 μM [g-33P]ATP (3.5 μCi 33P ATP/nmol ATP, Perkin Elmer, Massachusetts, USA) and 800 μM target peptide ([…]) (SEQ ID NO: 1); Isca Biochemicals, Cambridgeshire, UK).
Assays were carried out at 25° C. in the presence of 4 nM full-length ATR, 40 nM full-length ATRIP, 40 nM full-length CLK2 and 600 nM TopBP1 (A891-S1105). An enzyme stock buffer solution was prepared containing all of the reagents listed above, with the exception of target peptide, ATP and the test compound of interest. This enzyme stock was pre-incubated for 30 minutes at 25° C. 8.5 μL of the enzyme stock solution was placed in a 96-well plate followed by addition of 5 μl of target peptide and 2 μL of DMSO stock containing serial dilutions of the test compound (typically starting from a final concentration of 1.5 μM with 2.5-fold serial dilutions) in duplicate (final DMSO concentration 7%). The plate was pre-incubated for 10 minutes at 25° C. and the reaction initiated by addition of 15 μL [g-33P]ATP (final concentration 10 μM).
The reaction was stopped after […] by the addition of 30 μL 0.3 M phosphoric acid containing 2 mM ATP. A phosphocellulose filter 96-well plate (Multiscreen HTS MAPHNOB50, Merck-Millipore, Massachusetts, USA) was pretreated with 100 μL 0.1 M phosphoric acid prior to the addition of 45 μL of the stopped assay mixture. The plate was washed with 5×200 μL 0.1 M phosphoric acid. After drying, 50 μL Optiphase ‘SuperMix’ liquid scintillation cocktail (Perkin Elmer, Massachusetts, USA) was added to the well prior to scintillation counting (Wallac 1450 Microbeta Liquid Scintillation Counter, Perkin Elmer, Massachusetts, USA).
After removing mean background values for all of the data points, Ki(app) data were calculated from non-linear regression analysis of the initial rate data using the Prism software package (GraphPad Prism version 6.0c for Macintosh, GraphPad Software Inc., San Diego, USA).
Compounds with a Cisplatin sensitization value of <0.02 μM are marked with “+++.” Compounds with a Ki value >0.02 μM but <0.2 μM are marked with “++.” Compounds with a Ki value >0.2 μM but <5 μM are marked with “+.”

Assay [2] has as its target ATR kinase (full-length ATR) (Homo sapiens (Human), UniProt Q13535). The assay is described as follows: ATR inhibition assay (radioactive-phosphate incorporation). The assay is classed as biochemical. In outline:
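Ki(app) was fitted by non-linear regression to background-corrected initial rates. Full-length ATR (5 nM) phosphorylated 800 μM peptide using 10 μM [γ-33P]ATP at 25° C in Tris/HCl pH 7.5 buffer with MgCl2, DTT and 7% DMSO. After 10-minute compound pre-incubation and 24-hour reaction, phosphocellulose filters were scintillation counted.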

Setting [3] is: Ki(app), 5 nM full-length ATR, 10 μM ATP, 25° C.

Sequence of ATR kinase, in the presence of partner proteins ATRIP, CLK2 and TopBP1 (Q13535 whole entry): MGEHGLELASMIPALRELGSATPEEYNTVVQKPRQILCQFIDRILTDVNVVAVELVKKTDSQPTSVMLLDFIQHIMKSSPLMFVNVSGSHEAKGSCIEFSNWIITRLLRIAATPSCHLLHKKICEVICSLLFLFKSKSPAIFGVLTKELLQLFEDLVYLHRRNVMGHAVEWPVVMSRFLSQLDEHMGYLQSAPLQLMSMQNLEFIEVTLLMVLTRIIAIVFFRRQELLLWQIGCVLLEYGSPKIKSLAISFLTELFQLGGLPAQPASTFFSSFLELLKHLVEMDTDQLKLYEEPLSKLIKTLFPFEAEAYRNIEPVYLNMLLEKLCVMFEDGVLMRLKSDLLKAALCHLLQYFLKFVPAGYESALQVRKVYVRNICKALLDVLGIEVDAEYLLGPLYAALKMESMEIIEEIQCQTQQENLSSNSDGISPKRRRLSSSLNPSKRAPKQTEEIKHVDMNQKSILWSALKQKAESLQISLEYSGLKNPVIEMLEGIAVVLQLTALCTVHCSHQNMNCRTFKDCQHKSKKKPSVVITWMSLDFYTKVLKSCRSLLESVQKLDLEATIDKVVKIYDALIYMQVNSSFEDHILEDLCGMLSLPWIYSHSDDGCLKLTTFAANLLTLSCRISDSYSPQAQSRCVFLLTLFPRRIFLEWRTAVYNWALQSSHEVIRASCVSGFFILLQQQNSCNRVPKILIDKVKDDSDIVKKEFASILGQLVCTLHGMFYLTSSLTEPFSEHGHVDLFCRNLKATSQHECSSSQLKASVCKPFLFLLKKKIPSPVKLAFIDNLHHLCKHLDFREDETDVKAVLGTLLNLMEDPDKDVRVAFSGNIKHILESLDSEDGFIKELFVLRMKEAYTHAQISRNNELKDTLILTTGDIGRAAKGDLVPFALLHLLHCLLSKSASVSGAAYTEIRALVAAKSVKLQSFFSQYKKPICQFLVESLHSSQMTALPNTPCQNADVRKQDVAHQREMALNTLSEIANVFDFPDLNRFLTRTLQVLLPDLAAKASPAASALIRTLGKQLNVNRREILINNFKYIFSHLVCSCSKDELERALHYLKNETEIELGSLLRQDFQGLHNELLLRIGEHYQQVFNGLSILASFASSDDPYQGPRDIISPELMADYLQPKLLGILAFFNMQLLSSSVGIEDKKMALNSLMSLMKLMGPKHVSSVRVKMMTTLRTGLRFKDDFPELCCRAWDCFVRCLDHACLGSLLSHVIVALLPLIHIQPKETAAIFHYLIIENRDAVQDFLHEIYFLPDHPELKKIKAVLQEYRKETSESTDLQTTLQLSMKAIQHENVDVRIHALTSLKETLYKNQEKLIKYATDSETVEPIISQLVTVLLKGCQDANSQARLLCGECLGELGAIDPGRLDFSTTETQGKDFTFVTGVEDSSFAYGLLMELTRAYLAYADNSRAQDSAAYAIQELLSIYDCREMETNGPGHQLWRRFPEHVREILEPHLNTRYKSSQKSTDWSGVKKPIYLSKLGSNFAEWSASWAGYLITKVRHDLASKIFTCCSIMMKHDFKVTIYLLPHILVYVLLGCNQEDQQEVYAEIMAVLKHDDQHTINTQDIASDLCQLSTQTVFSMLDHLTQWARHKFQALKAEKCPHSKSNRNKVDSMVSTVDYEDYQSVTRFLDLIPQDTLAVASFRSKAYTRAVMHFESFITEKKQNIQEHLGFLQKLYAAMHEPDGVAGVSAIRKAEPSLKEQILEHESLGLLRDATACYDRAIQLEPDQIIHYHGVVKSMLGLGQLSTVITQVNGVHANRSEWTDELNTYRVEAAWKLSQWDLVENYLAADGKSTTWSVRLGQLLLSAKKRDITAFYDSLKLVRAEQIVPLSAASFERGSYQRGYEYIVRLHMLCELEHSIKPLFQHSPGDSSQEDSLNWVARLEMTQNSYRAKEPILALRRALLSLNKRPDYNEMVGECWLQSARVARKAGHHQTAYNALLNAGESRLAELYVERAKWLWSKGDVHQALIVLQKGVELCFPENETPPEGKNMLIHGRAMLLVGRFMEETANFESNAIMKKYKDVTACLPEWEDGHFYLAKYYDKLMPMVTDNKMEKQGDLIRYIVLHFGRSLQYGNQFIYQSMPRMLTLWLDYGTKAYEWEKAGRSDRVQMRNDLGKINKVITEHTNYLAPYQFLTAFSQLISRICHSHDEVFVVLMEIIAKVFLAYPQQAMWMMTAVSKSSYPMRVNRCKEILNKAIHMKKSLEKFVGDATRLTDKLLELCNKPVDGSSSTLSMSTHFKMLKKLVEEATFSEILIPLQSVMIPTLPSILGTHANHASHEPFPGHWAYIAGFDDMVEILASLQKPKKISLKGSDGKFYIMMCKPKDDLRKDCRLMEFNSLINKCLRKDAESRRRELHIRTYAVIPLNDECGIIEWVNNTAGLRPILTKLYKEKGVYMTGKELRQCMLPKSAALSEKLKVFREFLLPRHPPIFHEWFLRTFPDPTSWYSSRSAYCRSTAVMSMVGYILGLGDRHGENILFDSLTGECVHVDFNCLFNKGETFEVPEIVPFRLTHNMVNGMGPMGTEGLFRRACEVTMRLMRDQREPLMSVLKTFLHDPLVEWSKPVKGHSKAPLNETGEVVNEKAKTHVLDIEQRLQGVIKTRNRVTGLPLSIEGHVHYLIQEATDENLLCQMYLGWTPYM
Sequence of ATR kinase, in the presence of partner proteins ATRIP, CLK2 and TopBP1 (Q8WXE1 whole entry partner): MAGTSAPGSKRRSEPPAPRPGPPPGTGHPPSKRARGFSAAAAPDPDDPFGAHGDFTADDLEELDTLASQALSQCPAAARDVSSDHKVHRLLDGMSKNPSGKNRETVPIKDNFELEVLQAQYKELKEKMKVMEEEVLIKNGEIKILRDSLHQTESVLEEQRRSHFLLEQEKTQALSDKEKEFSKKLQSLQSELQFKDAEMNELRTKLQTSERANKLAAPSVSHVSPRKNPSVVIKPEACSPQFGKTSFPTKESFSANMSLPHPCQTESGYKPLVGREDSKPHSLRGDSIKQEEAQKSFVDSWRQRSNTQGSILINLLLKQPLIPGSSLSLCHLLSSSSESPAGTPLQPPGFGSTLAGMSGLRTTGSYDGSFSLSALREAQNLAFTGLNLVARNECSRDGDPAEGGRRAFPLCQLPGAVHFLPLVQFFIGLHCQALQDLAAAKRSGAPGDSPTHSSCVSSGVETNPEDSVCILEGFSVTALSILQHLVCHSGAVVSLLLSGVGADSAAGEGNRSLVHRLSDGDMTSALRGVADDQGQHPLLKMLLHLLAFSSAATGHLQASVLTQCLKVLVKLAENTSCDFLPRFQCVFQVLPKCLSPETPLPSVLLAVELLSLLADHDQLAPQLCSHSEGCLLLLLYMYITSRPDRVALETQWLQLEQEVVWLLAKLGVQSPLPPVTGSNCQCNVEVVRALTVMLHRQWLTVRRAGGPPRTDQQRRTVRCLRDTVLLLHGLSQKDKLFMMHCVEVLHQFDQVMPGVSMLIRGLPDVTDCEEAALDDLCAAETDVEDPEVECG
Sequence of ATR kinase (full-length ATR) (Q13535 whole entry): as the sequence (Q13535 whole entry) above

`Cn1cncc1-c1c(F)cncc1NC(=O)c1c(N)nn2cc(F)cnc12` [I-C-79, 2-amino-6-fluoro-N-(5-fluoro-4-(1-methyl-1H-imidazol-5-yl)pyridin-3-yl)pyrazolo[1,5-a]pyrimidine-3-carboxamide]: the Ki is less than 20 nM in assay [1] and 10 to 1000 nM in assay [2] (setting [3]).

Regarding `Nc1nn2cc(F)cnc2c1C(=O)Nc1cncc(F)c1N1CCC(C(=O)N2CCN3CCC2CC3)CC1` [I-G-7, N-(4-(4-(1,4-diazabicyclo[3.2.2]nonane-4-carbonyl)piperidin-1-yl)-5-fluoropyridin-3-yl)-2-amino-6-fluoropyrazolo[1,5-a]pyrimidine-3-carboxamide], the Ki was less than 20 nM in assay [1] and 10 to 1000 nM in assay [2].

For `Cc1nnccc1-c1ccncc1NC(=O)c1c(N)nn2cc(F)cnc12` [I-C-31, 2-amino-6-fluoro-N-(4-(3-methylpyridazin-4-yl)pyridin-3-yl)pyrazolo[1,5-a]pyrimidine-3-carboxamide], the Ki in assay [1] was less than 20 nM; in assay [2] (setting [3]) it was 10 to 1000 nM.

Consider `CN1CCN(C(=O)C2CCN(c3c(F)cncc3NC(=O)c3c(N)nn4cc(F)cnc34)CC2)CC1` [I-G-4, 2-amino-6-fluoro-N-(5-fluoro-4-(4-(4-methylpiperazine-1-carbonyl)piperidin-1-yl)pyridin-3-yl)pyrazolo[1,5-a]pyrimidine-3-carboxamide], for which the Ki in assay [1] is less than 20 nM; in assay [2] (setting [3]), 10 to 1000 nM.

Consider `Nc1nn2cc(F)cnc2c1C(=O)Nc1cncc(F)c1N1CCN2C(=O)CC[C@@H]2C1` [I-N-186, (R)-2-amino-6-fluoro-N-(5-fluoro-4-(6-oxohexahydropyrrolo[1,2-a]pyrazin-2(1H)-yl)pyridin-3-yl)pyrazolo[1,5-a]pyrimidine-3-carboxamide], for which the values for the Ki in assay [1] and in assay [2] (setting [3]) were less than 20 nM and 10 to 1000 nM, respectively.

As for `Nc1nn2cc(F)cnc2c1C(=O)Nc1cnccc1N1CCN(C2COC2)CC1` [I-N-1, 2-amino-6-fluoro-N-(4-(4-(oxetan-3-yl)piperazin-1-yl)pyridin-3-yl)pyrazolo[1,5-a]pyrimidine-3-carboxamide], the Ki was less than 20 nM in assay [1] and 10 to 1000 nM in assay [2] (setting [3]).

For `CC(=O)N1CCN(c2c(F)cncc2NC(=O)c2c(N)nn3cc(F)cnc23)CC1` [I-N-275, N-(4-(4-acetylpiperazin-1-yl)-5-fluoropyridin-3-yl)-2-amino-6-fluoropyrazolo[1,5-a]pyrimidine-3-carboxamide], the Ki in assay [1] was less than 20 nM; in assay [2] (setting [3]), 10 to 1000 nM.

With `Nc1nn2cc(F)cnc2c1C(=O)Nc1cncc(F)c1N1CCC(C(=O)N2CCN(C3COC3)CC2)CC1` [I-G-32, 2-amino-6-fluoro-N-[5-fluoro-4-[4-[4-(oxetan-3-yl)piperazine-1-carbonyl]-1-piperidyl]-3-pyridyl]pyrazolo[1,5-a]pyrimidine-3-carboxamide], the values for the Ki in assay [1] and in assay [2] (setting [3]) were less than 20 nM and 10 to 1000 nM, respectively.

For `Nc1nn2cc(F)cnc2c1C(=O)Nc1cncc(F)c1N1CCC(C(=O)N2CCNCC2)CC1` [I-G-12, 2-amino-6-fluoro-N-(5-fluoro-4-(4-(piperazine-1-carbonyl)piperidin-1-yl)pyridin-3-yl)pyrazolo[1,5-a]pyrimidine-3-carboxamide], the Ki in assay [1] was less than 20 nM; in assay [2] (setting [3]), 10 to 1000 nM.

For `Nc1nn2cc(Cl)cnc2c1C(=O)Nc1cnccc1N1CCN(C2COC2)CC1` [I-N-58, 2-amino-6-chloro-N-(4-(4-(oxetan-3-yl)piperazin-1-yl)pyridin-3-yl)pyrazolo[1,5-a]pyrimidine-3-carboxamide], the Ki in assay [1] was less than 20 nM; in assay [2] (setting [3]) it was 10 to 1000 nM.

Consider `COC1CN(C(=O)C2CCN(c3c(F)cncc3NC(=O)c3c(N)nn4cc(F)cnc34)CC2)C1` [I-G-21, 2-amino-6-fluoro-N-(5-fluoro-4-(4-(3-methoxyazetidine-1-carbonyl)piperidin-1-yl)pyridin-3-yl)pyrazolo[1,5-a]pyrimidine-3-carboxamide], for which the Ki in assay [1] is less than 20 nM; in assay [2] (setting [3]) it was 10 to 1000 nM.

On to `CN1CCN(S(=O)(=O)C2CCN(c3c(F)cncc3NC(=O)c3c(N)nn4cc(F)cnc34)CC2)CC1` [I-N-166, 2-amino-6-fluoro-N-(5-fluoro-4-(4-((4-methylpiperazin-1-yl)sulfonyl)piperidin-1-yl)pyridin-3-yl)pyrazolo[1,5-a]pyrimidine-3-carboxamide], for which the Ki was less than 20 nM in assay [1] and 10 to 1000 nM in assay [2] (setting [3]).

Consider `Nc1nn2cc(F)cnc2c1C(=O)Nc1cncc(F)c1N1CCN(C2COC2)CC1` [I-N-13, 2-amino-6-fluoro-N-(5-fluoro-4-(4-(oxetan-3-yl)piperazin-1-yl)pyridin-3-yl)pyrazolo[1,5-a]pyrimidine-3-carboxamide], for which the Ki in assay [1] is less than 20 nM; in assay [2] (setting [3]), 10 to 1000 nM.

Regarding `Nc1nn2cc(F)cnc2c1C(=O)Nc1cncc(F)c1N1CCNCC1` [I-N-118, 2-amino-6-fluoro-N-(5-fluoro-4-(piperazin-1-yl)pyridin-3-yl)pyrazolo[1,5-a]pyrimidine-3-carboxamide], the Ki in assay [1] is less than 20 nM; in assay [2] (setting [3]), 10 to 1000 nM.

`CN1CCN(C(=O)c2ccc(-c3ccncc3NC(=O)c3c(N)nn4cc(F)cnc34)cc2)CC1` [I-C-25, 2-amino-6-fluoro-N-(4-(4-(4-methylpiperazine-1-carbonyl)phenyl)pyridin-3-yl)pyrazolo[1,5-a]pyrimidine-3-carboxamide]: the Ki in assay [1] was less than 20 nM; in assay [2] (setting [3]), 10 to 1000 nM.

As to `CN1CCN(C(=O)C2CCN(c3c(F)cncc3NC(=O)c3c(N)nn4cc(F)cnc34)CC2)CC12CC2` [I-G-38, 2-amino-6-fluoro-N-(5-fluoro-4-(4-(4-methyl-4,7-diazaspiro[2.5]octane-7-carbonyl)piperidin-1-yl)pyridin-3-yl)pyrazolo[1,5-a]pyrimidine-3-carboxamide], the Ki in assay [2] (setting [3]) is 10 to 1000 nM.

Consider `N#CCc1cnc2c(C(=O)Nc3cnccc3OCCO)c(N)nn2c1` [I-O-33, 2-amino-6-(cyanomethyl)-N-(4-(2-hydroxyethoxy)pyridin-3-yl)pyrazolo[1,5-a]pyrimidine-3-carboxamide], for which the Ki in assay [2] (setting [3]) was less than 10 nM.

In the case of `CN(C)C1CCN(c2ccncc2NC(=O)c2c(N)nn3cc(Cl)cnc23)CC1` [I-N-37, 2-amino-6-chloro-N-(4-(4-(dimethylamino)piperidin-1-yl)pyridin-3-yl)pyrazolo[1,5-a]pyrimidine-3-carboxamide], in assay [2], the Ki lay in the range of 1000 to 5000 nM.

With `CN1CCN(C(=O)c2ccc(-c3c(F)cncc3NC(=O)c3c(N)nn4cc(F)cnc34)cc2)CC1` [I-C-43, 2-amino-6-fluoro-N-(5-fluoro-4-(4-(4-methylpiperazine-1-carbonyl)phenyl)pyridin-3-yl)pyrazolo[1,5-a]pyrimidine-3-carboxamide], the values for the Ki in assay [1] and in assay [2] (setting [3]) were less than 20 nM and 10 to 1000 nM, respectively.

Regarding `Nc1nn2cc(F)cnc2c1C(=O)Nc1cnccc1N1CCC(c2ncon2)CC1` [I-N-241, N-(4-(4-(1,2,4-oxadiazol-3-yl)piperidin-1-yl)pyridin-3-yl)-2-amino-6-fluoropyrazolo[1,5-a]pyrimidine-3-carboxamide], the Ki in assay [2] (setting [3]) lay within 10 to 1000 nM.

As for `Nc1nn2cc(F)cnc2c1C(=O)Nc1cncc(F)c1N1CCC(C(=O)N2CC(N3CCCC3)C2)CC1` [I-G-43, 2-amino-6-fluoro-N-(5-fluoro-4-(4-(3-(pyrrolidin-1-yl)azetidine-1-carbonyl)piperidin-1-yl)pyridin-3-yl)pyrazolo[1,5-a]pyrimidine-3-carboxamide], in assay [2] (setting [3]), the Ki is 10 to 1000 nM.
